Laboratory results as given in patent US9930890B2 (priority 2010, dated 2018).

Key:
Phytophthora infestans = assay type: in vivo; conditions: tomato plants, protective spray, active ingredient concentration 100 ppm, evaluation 7 days after inoculation; 0% = control, 100% = no infection
[1] = for logp [a]: pH 2.7; for logp [b]: pH 7.8
Plasmopara viticola = assay: Plasmopara test (grapevine)/protective; assay type: in vivo; conditions: grapevine young plants, protective spray, active ingredient concentration 10 ppm, evaluation 6 days after inoculation; 0% = control, 100% = no infection
Experimental: Plasmopara Test (Grapevine)/Protective
To produce an appropriate active ingredient formulation, 1 part by weight of active ingredient is mixed with the specified amounts of solvent and emulsifier, and the concentrate is diluted with water to the desired concentration.
To test for protective efficacy, young plants are sprayed with the active ingredient formulation at the stated application rate. After the spray coating has dried on, the plants are inoculated with an aqueous spore suspension of Plasmopara viticola and then remain in an incubation cabin at approx. 20° C. and 100% relative air humidity for 1 day. Subsequently, the plants are placed in a greenhouse at approx. 21° C. and approx. 90% air humidity for 4 days. The plants are then moistened and placed in an incubation cabin for 1 day.
Evaluation follows 6 days after the inoculation. 0% means an efficacy which corresponds to that of the control, whereas an efficacy of 100% means that no infection is observed.
In this test, the following inventive compounds show, at an active ingredient concentration of 10 ppm, an efficacy of 70% or more: […]

SMILES | Eff. % (Phytophthora infestans) | logp [a] [1] | Eff. % (Plasmopara viticola) | logp [b] [1]
CCON=Cc1ccccc1C1CC(c2csc(C3CCN(C(=O)Cn4nc(C(F)(F)F)cc4C)CC3)n2)=NO1 (mixture of isomers) [I-29] | 100% | 4[a] | 90% | 
CSCOc1ccccc1C1CC(c2csc(C3CCN(C(=O)Cn4nc(C(F)(F)F)cc4C)CC3)n2)=NO1 (stereo not drawn) [I-120] | 89% | 3.59[a], | 95% | 3.59[b]
CCS(=O)(=O)Oc1ccccc1C1CC(c2csc(C3CCN(C(=O)Cn4nc(C(F)(F)F)cc4C)CC3)n2)=NO1 (stereo not drawn) [I-119] | 89% | 3.19[a], | 100% | 3.21[b]
Cc1ccc(Cl)cc1NC(=O)N1CCC(c2nc(C3=NOC(c4c(Cl)cccc4OS(C)(=O)=O)C3)cs2)CC1 (racemic) [I-54] | 94% | 3.54[a], | 100% | 3.43[b]
O=C(Cn1nc(C(F)F)cc1C(F)F)N1CCC(c2nc(C3=NOC(c4ccccc4OS(=O)(=O)C(F)(F)F)C3)cs2)CC1 (stereo not drawn) [I-115] | 88% | 3.92[a], | 100% | 3.92[b]
N#CCCn1cccc1C1CC(c2csc(C3CCN(C(=O)Cn4nc(C(F)F)cc4C(F)F)CC3)n2)=NO1 (stereo not drawn) [I-87] | 80% | 2.71[a], | 95% | 2.64[b]
N#CCOc1ccc(C2CC(c3csc(C4CCN(C(=O)Cn5nc(C(F)F)cc5C(F)F)CC4)n3)=NO2)cc1 (stereo not drawn) [I-81] | 100% | 2.89[a], | 99% | 2.8[b]
CC(=NO)c1ccccc1C1CC(c2csc(C3CCN(C(=O)Cn4nc(C(F)(F)F)cc4C)CC3)n2)=NO1 (stereo not drawn) [I-40, 1-[4-(4-{5-[2-(N-Hydroxyethanimidoyl)phenyl]-4,5-dihydro-1,2-phenyloxazol-3-yl}-1,3-thiazol-2-yl)piperidin-1-yl]-2-[5-methyl-3-(trifluoromethyl)-1H-pyrazol-1-yl]ethanone] | 100% | 2.92[a] | 90% | 
CN(C)C(=S)c1ccccc1C1CC(c2csc(C3CCN(C(=O)Cn4nc(C(F)F)cc4C(F)F)CC3)n2)=NO1 (stereo not drawn) [I-127] | 97% | 3.11[a], | 96% | 3.06[b]
O=C(Oc1ccccc1C1CC(c2csc(C3CCN(C(=O)Cn4nc(C(F)F)cc4C(F)F)CC3)n2)=NO1)c1ccccc1 (stereo not drawn) [I-131] | 100% | 3.69[a], | 94% | 3.65[b]
CS(=O)(=O)Oc1c(F)cccc1C1CC(c2csc(C3CCN(C(=O)Cn4nc(C(F)F)cc4C(F)F)CC3)n2)=NO1 (stereo not drawn) [I-85] | 75% | 2.97[a], | 100% | 2.91[b]
CCS(=O)(=O)Oc1cccc(C2CC(c3csc(C4CCN(C(=O)Cn5nc(C(F)F)cc5C(F)F)CC4)n3)=NO2)c1 (stereo not drawn) [I-77] | 98% | 3.08[a], | 93% | 2.99[b]
Cc1cc(C(F)(F)F)nn1CC(=O)N1CCC(c2nc(C3=NOC(c4ccccc4OS(=O)(=O)C(F)(F)F)C3)cs2)CC1 (stereo not drawn) [I-125] | 89% | 3.99[a], | 100% | 4[b]
O=CNc1ccccc1C1CC(c2csc(C3CCN(C(=O)Nc4cc(C(F)F)ccc4C(F)F)CC3)n2)=NO1 (stereo not drawn) [I-122] | 97% | 2.63[a], | 89% | 2.54[b]
Cc1cc(C(F)F)nn1CC(=O)N1CCC(c2nc(C3=NOC(c4ccccc4OCC#N)C3)cs2)CC1 (stereo not drawn) [I-76] | 100% | 2.7[a], | 93% | 2.62[b]
C#CCOCc1ccccc1C1CC(c2csc(C3CCN(C(=O)Cn4nc(C(F)F)cc4C(F)F)CC3)n2)=NO1 (racemic) [I-53] | 94% | 3.31[a] | 96% | 
C=CC(=O)Oc1ccccc1C1CC(c2csc(C3CCN(C(=O)Cn4nc(C(F)F)cc4C(F)F)CC3)n2)=NO1 (stereo not drawn) [I-116] | 98% | 3.21[a], | 100% | 3.15[b]
Cc1cc(C(F)(F)F)nn1CC(=O)N1CCC(c2nc(C3=NOC(c4c(Cl)cccc4OCC#N)C3)cs2)CC1 (stereo not drawn) [I-78] | 80% | 3.31[a], | 97% | 3.23[b]
C#CCOCc1ccccc1C1CC(c2csc(C3CCN(C(=O)Cn4nc(C(F)F)cc4C(F)F)CC3)n2)=NO1 (stereo not drawn) [I-138] | 93% | 3.74[a] | 98% | 

SMILES | Eff. % (Phytophthora infestans) | logp [a] [1] | Eff. % (Plasmopara viticola) | logp [b] [1]
CSCOc1ccccc1C1CC(c2csc(C3CCN(C(=O)Cn4nc(C(F)F)cc4C(F)F)CC3)n2)=NO1 (stereo not drawn) [I-112] | 94% | 3.49[a], | 100% | 3.56[b]
Cc1ccc(C)c(NC(=O)N2CCC(c3nc(C4=NOC(c5ccccc5OS(C)(=O)=O)C4)cs3)CC2)c1 (stereo not drawn) [I-74] | 100% | 3.08[a], | 100% | 3.03[b]
O=C(Oc1ccccc1C1CC(c2csc(C3CCN(C(=O)Cn4nc(C(F)F)cc4C(F)F)CC3)n2)=NO1)c1ccc(F)cc1 (stereo not drawn) [I-132] | 100% | 3.73[a], | 96% | 3.7[b]
O=CNc1ccccc1C1CC(c2csc(C3CCN(C(=O)Cn4nc(C(F)F)cc4C(F)F)CC3)n2)=NO1 (stereo not drawn) [I-108] | 100% | 2.42[a], | 93% | 2.32[b]
CC(=NO)c1cccc(C2CC(c3csc(C4CCN(C(=O)Cn5nc(C(F)(F)F)cc5C)CC4)n3)=NO2)c1 (mixture of isomers) [I-7] | 100% | 2.8[a] | 100% | 
COC(=O)COc1ccc(C2CC(c3csc(C4CCN(C(=O)Cn5nc(C(F)F)cc5C(F)F)CC4)n3)=NO2)cc1 (stereo not drawn) [I-128] | 90% | 2.89[a], | 93% | 2.87[b]
N#CCOc1cccc(F)c1C1CC(c2csc(C3CCN(C(=O)Cn4nc(C(F)F)cc4C(F)F)CC3)n2)=NO1 (stereo not drawn) [I-113] | 85% | 2.87[a], | 100% | 2.88[b]
CS(=O)(=O)Oc1cccc(Cl)c1C1CC(c2csc(C3CCN(C(=O)Cn4nc(C(F)F)cc4C(F)F)CC3)n2)=NO1 (stereo not drawn) [I-102] | 75% | 3.2[a], | 100% | 3.09[b]
O=C(Oc1ccccc1C1CC(c2csc(C3CCN(C(=O)Cn4nc(C(F)F)cc4C(F)F)CC3)n2)=NO1)c1ccccc1F (stereo not drawn) [I-130] | 100% | 3.61[a], | 100% | 3.58[b]
N#CCOc1ccccc1C1CC(c2csc(C3CCN(C(=O)Cn4nc(C(F)F)cc4C(F)F)CC3)n2)=NO1 (stereo not drawn) [I-63] | 94% | 3[a], | 100% | 2.91[b]
CON=Cc1ccccc1C1CC(c2csc(C3CCN(C(=O)Cn4nc(C(F)(F)F)cc4C)CC3)n2)=NO1 (mixture of isomers) [I-34] | 100% | 3.7[a] | 87% | 
COCCS(=O)(=O)Cc1ccccc1C1CC(c2csc(C3CCN(C(=O)Cn4nc(C(F)F)cc4C(F)F)CC3)n2)=NO1 (racemic) [I-57] | 94% | 2.74[a] | 90% | 
CC(=O)OCc1ccccc1C1CC(c2csc(C3CCN(C(=O)Cn4nc(C(F)F)cc4C(F)F)CC3)n2)=NO1 (racemic) [I-55] | 94% | 3.22[a] | 92% | 
Cc1cc(C(F)(F)F)nn1CC(=O)N1CCC(c2nc(C3=NOC(c4cccc(F)c4OS(=O)(=O)C4CC4)C3)cs2)CC1 (stereo not drawn) [I-114] | 94% | 3.43[a], | 100% | 3.42[b]
C[Si](C)(C)C#Cc1ccccc1C1CC(c2csc(C3CCN(C(=O)Cn4nc(C(F)F)cc4C(F)F)CC3)n2)=NO1 (stereo not drawn) [I-133] | 100% | 4.78[a], | 85% | 4.79[b]
N#CCN(C=O)c1ccccc1C1CC(c2csc(C3CCN(C(=O)Cn4nc(C(F)F)cc4C(F)F)CC3)n2)=NO1 (stereo not drawn) [I-121] | 100% | 2.62[a], | 98% | 2.55[b]
CON=Cc1cccc(F)c1C1CC(c2csc(C3CCN(C(=O)Cn4nc(C(F)(F)F)cc4C)CC3)n2)=NO1 (mixture of isomers) [I-118] | 95% | 3.61[a], | 100% | 3.49[b]
C/C=C/C(=O)Oc1ccccc1C1CC(c2csc(C3CCN(C(=O)Cn4nc(C(F)F)cc4C(F)F)CC3)n2)=NO1 (stereo not drawn) [I-82] | 70% | 3.46[a], | 94% | 3.37[b]
O=CNc1ccccc1C1CC(c2csc(C3CCN(C(=O)Cc4cc(C(F)F)ccc4C(F)F)CC3)n2)=NO1 (stereo not drawn) [I-123] | 100% | 2.74[a], | 73% | 2.64[b]
